Here are results for ten compounds from patent US20240228488A1 (TAKEDA PHARMACEUTICAL COMPANY LIMITED, priority 2021, published 2024).

Chain of human activated kallikrein enzyme (P03952 391-638 limits assumed): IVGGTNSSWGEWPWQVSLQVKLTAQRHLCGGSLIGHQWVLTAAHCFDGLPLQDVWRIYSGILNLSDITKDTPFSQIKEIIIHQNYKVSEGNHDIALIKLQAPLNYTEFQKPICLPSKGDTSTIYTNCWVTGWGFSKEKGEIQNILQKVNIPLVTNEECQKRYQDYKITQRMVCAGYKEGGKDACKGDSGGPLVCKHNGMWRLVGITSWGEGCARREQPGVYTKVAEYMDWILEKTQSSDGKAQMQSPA
Chain of human activated kallikrein enzyme (P03952 20-390 partner limits assumed): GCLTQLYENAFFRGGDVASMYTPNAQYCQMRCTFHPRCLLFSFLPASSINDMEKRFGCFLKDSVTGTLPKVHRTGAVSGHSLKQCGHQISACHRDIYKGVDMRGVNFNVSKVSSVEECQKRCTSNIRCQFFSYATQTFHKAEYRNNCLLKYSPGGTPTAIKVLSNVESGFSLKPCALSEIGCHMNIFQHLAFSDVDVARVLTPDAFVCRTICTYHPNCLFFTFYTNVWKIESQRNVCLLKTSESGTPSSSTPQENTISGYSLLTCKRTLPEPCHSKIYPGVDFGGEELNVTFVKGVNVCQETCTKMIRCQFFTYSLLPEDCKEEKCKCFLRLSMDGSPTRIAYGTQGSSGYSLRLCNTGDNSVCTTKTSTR

The assay addresses human activated kallikrein enzyme (Homo sapiens, UniProt P03952). Kind of assay: Plasma kallikrein inhibition, fluorogenic PFR-AMC substrate, 500 pM activated kallikrein format. The assay is classed as biochemical. As to conditions: 500 pM activated kallikrein, 300 uM PFR-AMC, 30 min preincubation, 10 min reaction; read-out: Primary Dose Response Assay: Average EC50. Summed up: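 500 pM enz + cpd, 30 min RT preinc; start w/ PFR-AMC 300 uM; 10 min RT; Ex380/Em460. Buffer: Tris 20 mM pH 7.5, EDTA 1 mM, NaCl 150 mM, PEG-400 0.1%, Triton 0.1%. EC50.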
With `O=C(Nc1cc(NCc2cn3cc(C4CC4)ccc3n2)ncn1)[C@H]1C[C@@H]1c1cc(Cl)ccc1OC(F)F` (racemic) [Example 311, rac-(1S*,2S*)-2-(5-chloro-2-(difluoromethoxy)phenyl)-N-(6-(((6-cyclopropylimidazo[1,2-a]pyridin-2-yl)methyl)amino)pyrimidin-4-yl)cyclopropane-1-carboxamide], the EC50 (usually the midpoint of the concentration-response curve) lay in the range of 10 to 100 nM.

On to `O=C(Nc1cc(NCc2cn3cc(C4CC4)ccc3n2)ncn1)[C@H]1C[C@@H]1c1cc(Cl)cnn1` (racemic) [Example I-178, rac-(1S*,2S*)-2-(5-chloropyridazin-3-yl)-N-(6-(((6-cyclopropylimidazo[1,2-a]pyridin-2-yl)methyl)amino)pyrimidin-4-yl)cyclopropane-1-carboxamide], for which the EC50 is 100 to 1000 nM. On to `O=C(Nc1cc(NCc2cn3cc(C4CC4)ccc3n2)ncn1)[C@H]1C[C@@H]1c1cc(Cl)ccc1C(F)F` (racemic) [Example 51, rac-(1S*,2S*)-2-(5-chloro-2-(difluoromethyl)phenyl)-N-(6-(((6-cyclopropylimidazo[1,2-a]pyridin-2-yl)methyl)amino)pyrimidin-4-yl)cyclopropane-1-carboxamide], for which the EC50 is 10 to 100 nM. On to `O=C(Nc1ncccc1OCc1cn2cc(C3CC3)ccc2n1)[C@H]1C[C@@H]1c1cccc(Cl)c1` [Example 569, (1S,2S)-2-(3-chlorophenyl)-N-(3-((6-cyclopropylimidazo[1,2-a]pyridin-2-yl)methoxy)pyridin-2-yl)cyclopropane-1-carboxamide], for which the EC50 was in the range of 100 to 1000 nM. `COc1cc([C@H]2C[C@@H]2C(=O)Nc2cc(NCc3cn4cc(C5CC5)ccc4n3)ncn2)cc(Cl)n1` (racemic) [Example I-187, rac-(1S*,2S*)-2-(2-chloro-6-methoxypyridin-4-yl)-N-(6-(((6-cyclopropylimidazo[1,2-a]pyridin-2-yl)methyl)amino)pyrimidin-4-yl)cyclopropane-1-carboxamide]: the EC50 was > 6000 nM. With `Cc1ccnc([C@H]2C[C@@H]2C(=O)Nc2cc(N[C@H](C)c3cn4cc(C(F)F)cc(N5CC(=O)N(C)C5=O)c4n3)ncn2)n1` [Example 417, (1S,2S)-N-(6-(((R)-1-(6-(difluoromethyl)-8-(3-methyl-2,4-dioxoimidazolidin-1-yl)imidazo[1,2-a]pyridin-2-yl)ethyl)amino)pyrimidin-4-yl)-2-(4-methylpyrimidin-2-yl)cyclopropane-1-carboxamide] the figure was < 1 nM; with `O=C(Nc1cc(NCc2cn3cc(C4CC4)ccc3n2)ncn1)[C@@]1(F)C[C@@H]1c1cccc(Cl)c1` (racemic) [Example I-184, rac-(1S*,2S*)-2-(3-chlorophenyl)-N-(6-(((6-cyclopropylimidazo[1,2-a]pyridin-2-yl)methyl)amino)pyrimidin-4-yl)-1-fluorocyclopropane-1-carboxamide], 10 to 100 nM. In the case of `CN1CCN(c2cc(Cl)cn3cc(CNc4ccnc(NC(=O)[C@H]5C[C@@H]5c5cccc(Cl)c5)c4)nc23)CC1` [Example I-252, (1S,2S)-N-(4-(((6-chloro-8-(4-methylpiperazin-1-yl)imidazo[1,2-a]pyridin-2-yl)methyl)amino)pyridin-2-yl)-2-(3-chlorophenyl)cyclopropane-1-carboxamide], the EC50 is < 1 nM.

Regarding `CCc1cc(N2CC(=O)N(C)C2=O)c2nc([C@@H](C)Nc3cc(NC(=O)[C@H]4C[C@@H]4c4nccc(C)n4)ncn3)cn2c1` [Example 419, (1S,2S)-N-(6-(((R)-1-(6-ethyl-8-(3-methyl-2,4-dioxoimidazolidin-1-yl)imidazo[1,2-a]pyridin-2-yl)ethyl)amino)pyrimidin-4-yl)-2-(4-methylpyrimidin-2-yl)cyclopropane-1-carboxamide], the EC50 was < 1 nM. Regarding `O=C(Nc1noc(NCc2cn3cc(C4CC4)ccc3n2)n1)[C@H]1C[C@@H]1c1cccc(Cl)c1` [Example 615, (1S,2S)-2-(3-chlorophenyl)-N-(5-(((6-cyclopropylimidazo[1,2-a]pyridin-2-yl)methyl)amino)-1,2,4-oxadiazol-3-yl)cyclopropane-1-carboxamide], the half-maximal effective concentration (EC50) was in the range of 1000 to 6000 nM.
